What was measured:
Septoria nodorum = assay: Action against Septoria nodorum/wheat (Septoria leaf spot on wheat); assay type: in vivo; conditions: wheat plants cv. Arina, spray 0.02% active ingredient, inoculated one day after application, assessed 11 days after inoculation
Procedure: Action Against Septoria nodorum/wheat (Septoria Leaf Spot on Wheat)
1 week old wheat plants cv. […] One day after application wheat plants are inoculated by spraying a spore suspension (5×10^5 conidia/ml) on the test plants. After an incubation period of 1 day at 20° C. and 95% r. h. plants are kept for 10 days at 20° C. and 60% r.h. in a greenhouse. The disease incidence is assessed 11 days after inoculation.

Venturia Inaequalis = assay: Action against Venturia inaequalis/apple (scab on apple); assay type: in vivo; conditions: apple seedlings cv. McIntosh, spray 0.02% active ingredient, inoculated one day after application, assessed after 4+4+4 days incubation
Procedure: Action Against Venturia Inaequalis/apple (Scab on Apple)
4 week old apple seedlings cv. […] One day after application apple plants are inoculated by spraying a spore suspension (4×10^5 conidia/ml) on the test plants. After an incubation period of 4 days at 21° C. and 95% r. h. the plants are placed for 4 days at 21° C. and 60% r. h. in a greenhouse. After another 4 day incubation period at 21° C. and 95% r. h. the disease incidence is assessed.

Botryis cinerea = assay: Action against Botryis cinerea/apple (Botrytis on apple fruits); assay type: in vivo, B. cinerea; conditions: apple fruit cv. Golden Delicious, 30 μl droplets 0.002% active ingredient in drilled holes, inoculated two hours after application, assessed after 7 days
Procedure: Action Against Botryis cinerea/apple (Botrytis on Apple Fruits)
In an apple fruit cv. […] Two hours after application 50 μl of a spore suspension of B. cinerea (4×10^5 conidia/ml) are pipetted on the application sites. After an incubation period of 7 days at 22° C. in a growth chamber the disease incidence is assessed.

Boftis cinerea = assay: Action against Boftis cinerea/grape (Botrytis on grapes); assay type: in vivo; conditions: grape seedlings cv. Gutedel, spray 0.002% active ingredient, inoculated two days after application, assessed after 4 days incubation
Procedure: Action Against Boftis cinerea/grape (Botrytis on Grapes)
5 week old grape seedlings cv. […] Two days after application grape plants are inoculated by spraying a spore suspension (1×10^6 conidia/ml) on the test plants. After an incubation period of 4 days at 21° C. and 95% r. h. in a greenhouse the disease incidence is assessed.

Puenophora teres = assay: Action against Puenophora teres/barley (net blotch on barley); assay type: in vivo; conditions: barley plants cv. Express, spray 0.002% active ingredient, inoculated two days after application, assessed 4 days after inoculation
Procedure: Action Against Puenophora teres/barley (Net Blotch on Barley)
1 week old barley plants cv. […] Two days after application barley plants are inoculated by spraying a spore suspension (3×10^4 conidia/ml) on the test plants. After an incubation period of 2 days at 20° C. and 95% r. h. plants are kept for 2 days at 20° C. and 60% r.h. in a greenhouse. The disease incidence is assessed 4 days after inoculation.

Podosphaera leucotricha = assay: Action against Podosphaera leucotricha/apple (powdery mildew on apple); assay type: in vivo; conditions: apple seedlings cv. McIntosh, spray 0.002% active ingredient, inoculated one day after application, assessed after 12 days incubation
Procedure: Action Against Podosphaera leucotricha/apple (Powdery Mildew on Apple)
5 week old apple seedlings cv. […] One day after application apple plants are inoculated by shaking plants infected with apple powdery mildew above the test plants. After an incubation period of 12 days at 22° C. and 60% r. h. under a light regime of 14/10 h (light/dark) the disease incidence is assessed.

Botryts cinerea = assay: Action against Botryts cinerea/tomato (Botrytis on tomatoes); assay type: in vivo; conditions: tomato plants cv. Roter Gnom, spray 0.002% active ingredient, inoculated two days after application, assessed after 4 days incubation
Procedure: Action Against Botryts cinerea/tomato (Botrytis on Tomatoes)
4 week old tomato plants cv. […] Two days after application tomato plants are inoculated by spraying a spore suspension (1×10^5 conidia/ml) on the test plants. After an incubation period of 4 days at 20° C. and 95% r. h. in a growth chamber the disease incidence is assessed.

Etysiphe graminis = assay: Action against Etysiphe graminis/barley (powdery mildew on barley); assay type: in vivo; conditions: barley plants cv. Express, spray 0.02% active ingredient, inoculated one day after application, assessed after 6 days incubation
Procedure: Action Against Etysiphe graminis/barley (Powdery Mildew on Barley)
1 week old barley plants cv. […] One day after application barley plants are inoculated by shaking powdery mildew infected plants above the test plants. After an incubation period of 6 days at 20° C./18° C. (day/night) and 60% r. h. in a greenhouse the disease incidence is assessed.

Measured: efficacy (disease incidence)

Cn1cc(C(=O)Nc2ccsc2-c2ccc(Cl)cc2)c(C(F)(F)C(F)(F)F)c1 [Compound 2.190]
strong efficacy: all assays above

Cn1cc(C(=O)Nc2cnccc2-c2ccc(Cl)cc2)c(C2CC2)c1 [Compound 6.49]
strong efficacy: all assays above

CCn1cc(C(=O)Nc2ccccc2-c2ccc(Cl)cc2)c(C(C)C)c1 [Compound 1.271]
strong efficacy: all assays above

Cn1cc(C(=O)Nc2cnccc2-c2ccc(F)cc2)c(C2CC2)c1 [Compound 6.51]
strong efficacy: all assays above

Cc1cn(C)cc1C(=O)Nc1ccccc1-c1ccc(Cl)cc1 [Compound 1.23]
strong efficacy: all assays above

Cn1cc(C(=O)Nc2ccccc2-c2ccc(Cl)cc2)c(C(F)(F)C(F)(F)F)c1 [Compound 1.190]
strong efficacy: all assays above

Cc1cn(C)cc1C(=O)Nc1snnc1-c1ccc(F)cc1 [Compound 4.12]
strong efficacy: all assays above

Cn1cc(C(=O)Nc2ccsc2-c2ccc(F)cc2)c(C(F)(F)C(F)(F)F)c1 [Compound 2.192]
strong efficacy: all assays above

CC1CC(C)(C)c2cccc(NC(=O)c3cn(C)cc3C(F)(F)C(F)(F)F)c21 (racemic) [Compound 10.5]
strong efficacy: all assays above

CCc1cn(CC)cc1C(=O)Nc1ccccc1-c1ccc(F)cc1 [Compound 1.266]
strong efficacy: all assays above

Cn1cc(C(=O)Nc2ccccc2C2CCCCC2)c(C(F)(F)C(F)(F)F)c1 [Compound 1.187]
strong efficacy: all assays above

CC(C)c1cn(C)cc1C(=O)Nc1ccccc1-c1ccc(Cl)cc1 [Compound 1.268]
strong efficacy: all assays above

Source: patent US6806286B2, “Pyrrolecarboxamides and pyrrolethioamides as fungicides” (Syngenta Crop Protection, Inc., priority 2000, dated 2004)
